According to patent US20190054103A1, “METHOD OF TREATMENT OF TP53 WILD-TYPE TUMORS WITH 2',2'-DIFLUORO-5-AZA-2'-DEOXYCYTIDINE OR PRODRUGS THEREOF” (priority 2016, published 2019):
Like-named read-outs stand apart in the source and are kept apart here.

Legend:
in vivo = settings: nude, mouse, iv
[1] = tested on: HL-60 (leukemia, TP null); settings: HL-60 nude mice
SK-MEL-28 = assay: NCI 60 Cell Line Panel growth inhibition; format: cell-based, human; settings: SK-MEL-28, Melanoma, TP53 null/mutant
Excerpt: (§1) The NCI-60 Cell Line Panel was assembled by the National Cancer Institute as an in vitro anticancer drug screen. The panel comprises human cancer cell lines representing nine different tissues of origin: breast, colon, central nervous system, renal, lung, melanoma, ovarian, prostate, and hematogenous. […] See, e.g., Leroy et al. “Analysis of TP53 Mutation Status in Human Cancer Cell Lines: a Reassesment” Hum Mutat 2014 35(6): 756-765.

MOLT-4 = assay: NCI 60 Cell Line Panel growth inhibition; format: cell-based, human; settings: MOLT-4, Leukemia, TP53 null/mutant
Excerpt: as §1

HL-60 = assay: NCI 60 Cell Line Panel growth inhibition; format: cell-based, human; settings: HL-60, Leukemia, TP53 null/mutant
Excerpt: as §1

SN12C = assay: NCI 60 Cell Line Panel growth inhibition; format: cell-based, human; settings: Renal cancer, TP53 null/mutant
Excerpt: as §1

MDA-MB-435 = assay: NCI 60 Cell Line Panel growth inhibition; format: cell-based, human; settings: MDA-MB-435, Melanoma, TP53 null/mutant
Excerpt: as §1

OVCAR-4 = assay: NCI 60 Cell Line Panel growth inhibition; format: cell-based, human; settings: OVCAR-4, Ovarian cancer, TP53 null/mutant
Excerpt: as §1

KM12 = assay: NCI 60 Cell Line Panel growth inhibition; format: cell-based, human; settings: KM12, Colon cancer, TP53 null/mutant
Excerpt: as §1

DU-145 = assay: NCI 60 Cell Line Panel growth inhibition; format: cell-based, human; settings: DU-145, Prostate cancer, TP53 null/mutant
Excerpt: as §1

SW-620 = assay: NCI 60 Cell Line Panel growth inhibition; format: cell-based, human; settings: SW-620, Colon cancer, TP53 null/mutant
Excerpt: as §1

NCI-H23 = assay: NCI 60 Cell Line Panel growth inhibition; format: cell-based, human; settings: NCI-H23, Lung-NSCL, TP53 null/mutant
Excerpt: as §1

SNB-75 = assay: NCI 60 Cell Line Panel growth inhibition; format: cell-based, human; settings: SNB-75, CNS cancer, TP53 null/mutant
Excerpt: as §1

TK-10 = assay: NCI 60 Cell Line Panel growth inhibition; format: cell-based, human; settings: TK-10, Renal cancer, TP53 null/mutant
Excerpt: as §1

LOX IMVI = assay: NCI 60 Cell Line Panel growth inhibition; format: cell-based, human; settings: Melanoma, TP53 wild type
Excerpt: as §1

SK-OV-3 = assay: NCI 60 Cell Line Panel growth inhibition; format: cell-based, human; settings: SK-OV-3, Ovarian cancer, TP53 null/mutant
Excerpt: as §1

A549/ATCC = assay: NCI 60 Cell Line Panel growth inhibition; format: cell-based, human; settings: Lung-NSCL, TP53 wild type
Excerpt: as §1

ACHN = assay: NCI 60 Cell Line Panel growth inhibition; format: cell-based, human; settings: Renal cancer, TP53 wild type
Excerpt: as §1

PC-3 = assay: NCI 60 Cell Line Panel growth inhibition; format: cell-based, human; settings: PC-3, Prostate cancer, TP53 null/mutant
Excerpt: as §1

SNB-19 = assay: NCI 60 Cell Line Panel growth inhibition; format: cell-based, human; settings: SNB-19, CNS cancer, TP53 null/mutant
Excerpt: as §1

NCI-H322M = assay: NCI 60 Cell Line Panel growth inhibition; format: cell-based, human; settings: Lung-NSCL, TP53 null/mutant
Excerpt: as §1

UACC-62 = assay: NCI 60 Cell Line Panel growth inhibition; format: cell-based, human; settings: UACC-62, Melanoma, TP53 wild type
Excerpt: as §1

OVCAR-5 = assay: NCI 60 Cell Line Panel growth inhibition; format: cell-based, human; settings: OVCAR-5, Ovarian cancer, TP53 wild type
Excerpt: as §1

MALME-3M = assay: NCI 60 Cell Line Panel growth inhibition; format: cell-based, human; settings: Melanoma, TP53 wild type
Excerpt: as §1

M14 = assay: NCI 60 Cell Line Panel growth inhibition; format: cell-based, human; settings: M14, Melanoma, TP53 null/mutant
Excerpt: as §1

RXF 393 = assay: NCI 60 Cell Line Panel growth inhibition; format: cell-based, human; settings: RXF 393, Renal cancer, TP53 null/mutant
Excerpt: as §1

IGROV-1 = assay: NCI 60 Cell Line Panel growth inhibition; format: cell-based, human; settings: IGROV-1, Ovarian cancer, TP53 null/mutant
Excerpt: as §1

SR = assay: NCI 60 Cell Line Panel growth inhibition; format: cell-based, human; settings: Leukemia, TP53 wild type
Excerpt: as §1

SK-MEL-2 = assay: NCI 60 Cell Line Panel growth inhibition; format: cell-based, human; settings: SK-MEL-2, Melanoma, TP53 null/mutant
Excerpt: as §1

MCF7 = assay: NCI 60 Cell Line Panel growth inhibition; format: cell-based, human; settings: MCF7, Breast cancer, TP53 wild type
Excerpt: as §1

K-562 = assay: NCI 60 Cell Line Panel growth inhibition; format: cell-based, human; settings: K-562, Leukemia, TP53 null/mutant
Excerpt: as §1

SF-539 = assay: NCI 60 Cell Line Panel growth inhibition; format: cell-based, human; settings: SF-539, CNS cancer, TP53 null/mutant
Excerpt: as §1

HOP-92 = assay: NCI 60 Cell Line Panel growth inhibition; format: cell-based, human; settings: HOP-92, Lung-NSCL, TP53 null/mutant
Excerpt: as §1

UACC-257 = assay: NCI 60 Cell Line Panel growth inhibition; format: cell-based, human; settings: UACC-257, Melanoma, TP53 wild type
Excerpt: as §1

HS 578T = assay: NCI 60 Cell Line Panel growth inhibition; format: cell-based, human; settings: Breast cancer, TP53 null/mutant
Excerpt: as §1

HT29 = assay: NCI 60 Cell Line Panel growth inhibition; format: cell-based, human; settings: HT29, Colon cancer, TP53 null/mutant
Excerpt: as §1

HCC-2998 = assay: NCI 60 Cell Line Panel growth inhibition; format: cell-based, human; settings: HCC-2998, Colon cancer, TP53 null/mutant
Excerpt: as §1

Compound: Nc1ncn([C@@H]2O[C@H](CO)[C@@H](O)C2(F)F)c(=O)n1 [NUC013, 4-amino-1-((2R,4R,5R)-3,3-difluoro-4-hydroxy-5-(hydroxymethyl)tetrahydrofuran-2-yl)-1,3,5-triazin-2(1H)-one]
- MTD at 3 weeks (in vivo): > 120 mg/kg
- animals removed from the study for death or moribund ([1]; 5.8 mg/kg): no animals removed from the study for death or moribund
- tumor weights vs saline control ([1]; 5.8 mg/kg): not significantly different
- hazard ratio (HR) vs saline control (death, ulcerated tumor or tumor >4 g) ([1]; 5.8 mg/kg (equimolar to decitabine 5 mg/kg)): 0.46
- hazard ratio (HR) vs saline control (death, ulcerated tumor or tumor >4 g) ([1]; 20 mg/kg): 0.26
- tumor volume vs saline control ([1]; 20 mg/kg, study days 18 through 28, FIG. 3A): significant decreases
- Growth (%) at 10 μM (SK-MEL-28): 78.46%
- Growth (%) at 10 μM (MOLT-4): 35.63%
- Growth (%) at 10 μM (HL-60): 25.23%
- Growth (%) at 10 μM (SN12C): 51.65%
- Growth (%) at 10 μM (MDA-MB-435): 53.04%
- Growth (%) at 10 μM (OVCAR-4): 94.88%
- Growth (%) at 10 μM (KM12): 61.18%
- Growth (%) at 10 μM (DU-145): 43.48%
- Growth (%) at 10 μM (SW-620): 51.21%
- Growth (%) at 10 μM (NCI-H23): 30.61%
- Growth (%) at 10 μM (SNB-75): 64.95%
- Growth (%) at 10 μM (TK-10): 91.13%
- Growth (%) at 10 μM (LOX IMVI): 34.53%
- Growth (%) at 10 μM (SK-OV-3): 71.09%
- Growth (%) at 10 μM (A549/ATCC): 37.91%
- Growth (%) at 10 μM (ACHN): 7.28%
- Growth (%) at 10 μM (PC-3): 63.57%
- Growth (%) at 10 μM (SNB-19): 58.88%
- Growth (%) at 10 μM (NCI-H322M): 70.00%
- Growth (%) at 10 μM (UACC-62): 47.29%
- Growth (%) at 10 μM (OVCAR-5): 86.95%
- Growth (%) at 10 μM (MALME-3M): 67.90%
- Growth (%) at 10 μM (M14): 15.55%
- Growth (%) at 10 μM (RXF 393): 44.97%
- Growth (%) at 10 μM (IGROV-1): 56.77%
- Growth (%) at 10 μM (SR): 14.99%
- Growth (%) at 10 μM (SK-MEL-2): 104.47%
- Growth (%) at 10 μM (MCF7): 20.74%
- Growth (%) at 10 μM (K-562): 65.66%
- Growth (%) at 10 μM (SF-539): 22.25%
- Growth (%) at 10 μM (HOP-92): 34.34%
- Growth (%) at 10 μM (UACC-257): 77.54%
- Growth (%) at 10 μM (HS 578T): 90.37%
- Growth (%) at 10 μM (HT29): 70.09%
- Growth (%) at 10 μM (HCC-2998): 60.44%
